Assay [1] deals with T1, Cyclin Dependent Kinase 4/Cyclin D3 (CDK4-cycD3) (Homo sapiens, UniProt P11802).
T1 construct: purchased Carna Biosciences 04-105
The assay is described as follows: CDK4-cycD3 TR-FRET (LANCE) enzyme assay. In kind it is biochemical. Particulars: Table O, enzymatic assay. The procedure, abridged: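 Compound dose responses pre-incubated 30 min with enzyme mix in 50 mM HEPES pH 7.5, 10 mM MgCl2, 2 mM TCEP, 0.05% BGG, 0.01% Brij 35. Reaction quenched with EDTA (15 mM final); Eu-anti-phospho-4E-BP1 TR-FRET detection, acceptor/donor ratio. Ki derived by Morrison equation.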
(Time-resolved FRET reads energy transfer from a long-lived donor to a nearby acceptor.)

In assay [2] the target is T2, Cyclin Dependent Kinase 1/Cyclin A2 (CDK1-cycA2) (Homo sapiens, UniProt P06493).
T2 construct: purchased ProQinase 0134-0054-1
T2 sequence (P06493 whole entry): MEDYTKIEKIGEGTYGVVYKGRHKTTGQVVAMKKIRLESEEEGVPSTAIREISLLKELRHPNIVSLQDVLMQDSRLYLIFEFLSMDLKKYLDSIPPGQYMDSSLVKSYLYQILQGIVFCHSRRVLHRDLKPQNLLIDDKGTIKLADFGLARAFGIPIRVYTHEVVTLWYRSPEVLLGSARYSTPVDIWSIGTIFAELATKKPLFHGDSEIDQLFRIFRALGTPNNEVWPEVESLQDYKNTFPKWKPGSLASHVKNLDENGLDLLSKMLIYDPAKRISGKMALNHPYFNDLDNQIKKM
T2 sequence (P20248 whole entry partner): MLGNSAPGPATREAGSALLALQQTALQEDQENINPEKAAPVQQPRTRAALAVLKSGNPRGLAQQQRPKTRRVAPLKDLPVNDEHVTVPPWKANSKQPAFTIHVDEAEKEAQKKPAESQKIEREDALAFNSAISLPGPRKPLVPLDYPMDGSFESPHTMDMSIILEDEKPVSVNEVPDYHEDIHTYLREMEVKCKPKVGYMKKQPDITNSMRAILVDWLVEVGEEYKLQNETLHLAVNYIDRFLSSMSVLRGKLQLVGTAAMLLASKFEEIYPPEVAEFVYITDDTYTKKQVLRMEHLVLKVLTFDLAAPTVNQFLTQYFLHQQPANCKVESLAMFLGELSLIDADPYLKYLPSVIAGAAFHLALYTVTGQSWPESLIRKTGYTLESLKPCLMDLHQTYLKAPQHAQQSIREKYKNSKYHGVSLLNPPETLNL
The assay is described as follows: CDK1-cycA2 TR-FRET (Lance) enzyme assay. Particulars: Table O, enzymatic assay. In kind it is biochemical. The procedure, abridged: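 Human CDK1/cyclin A2 pre-incubated 30 min with compound dose responses in 50 mM HEPES pH 7.5, 10 mM MgCl2, 2 mM TCEP, 0.05% BGG, 0.01% Brij 35. Reaction quenched with EDTA (15 mM final); TR-FRET readout using Eu-anti-phospho-4E-BP1, acceptor/donor ratio. Inhibition constants from Morrison equation.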

Another assay has as its system SKOV-3 (ATCC HTB-77). The assay is described as follows: SKOV-3 EdU incorporation cell proliferation assay (CDK4/6-dependent). In kind it is cell-based. Particulars: Homo sapiens. In short, it runs like this: (§1)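 Cells in RPMI/10% FBS dosed with compound (0.5% DMSO final) for 16 h at 37 °C, 5% CO2, then EdU 0.5 μM final for 8 h before fixation and imaging. IC50 from 4-parameter logistic fit of EdU-positive cell fraction versus dose.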

A further assay concerns HCT116 cells. The assay is described as follows: p-H3 HCT-116 mitotic release cell proliferation assay (cellular CDK1). In kind it is cell-based. Particulars: Homo sapiens. The procedure, abridged: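 HCT116 cells arrested 16 h with 500 nM nocodazole, then exposed to compound for 4 h at 37 °C (0.1% DMSO). Lysates read by HTRF/FRET with donor and acceptor phospho-Histone H3 (Ser10) antibodies, ≥2 h at room temperature; CDK1 inhibition seen as loss of p-H3 on mitotic release.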

Assay [3] addresses T3, Cyclin Dependent Kinase 2/Cyclin E1 (CDK2-cycE1) (Homo sapiens, UniProt P24941).
T3 construct: purchased ProQinase 0050-0055-1
The assay is described as follows: CDK2-cycE1 TR-FRET (LANCE) enzyme assay. In kind it is biochemical. The settings on record: Table O; for Ki: enzymatic assay, read-out: CDK2 Ki; for FS CDK1/CDK2 / FS CDK4/CDK2: fold selectivity; for FS CDK1/CDK2: enzymatic CDK1 Ki over CDK2 Ki; for FS CDK4/CDK2: enzymatic CDK4 Ki over CDK2 Ki. The procedure, abridged: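 Compound dose responses pre-incubated 30 min with CDK2-cycE1 in 50 mM HEPES pH 7.5, 10 mM MgCl2, 2 mM TCEP, 0.05% BGG, 0.01% Brij 35. Reaction quenched with EDTA (15 mM final), phospho-MBP detected by Eu-anti-phospho-MBP TR-FRET (acceptor/donor ratio). Inhibition constants from Morrison equation.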

The subject of assay [4] is OVISE (JCRB1043, CCNE1-amplified). The assay is described as follows: OVISE EdU incorporation cell proliferation assay (CDK2-dependent). Type of assay: cell-based. Particulars: for IC50: read-out: CDK2 OVISE IC50; for FS SKOV-3/OVISE / FS p-H3/OVISE: fold selectivity; for FS SKOV-3/OVISE: cellular SKOV-3 IC50 over OVISE IC50; for FS p-H3/OVISE: cellular p-H3 IC50 over OVISE IC50. In short, it runs like this: as §1

Where [5] appears, read: SK-OV-3, Table O, cellular assay, read-out: CDK4/6 SKOV-3 IC50.
Where [6] appears, read: HCT-116, Table O, cellular assay, read-out: CDK1 p-H3 IC50.

Like-named read-outs stand apart in the source and are kept apart here.

T1 sequence (P11802 whole entry): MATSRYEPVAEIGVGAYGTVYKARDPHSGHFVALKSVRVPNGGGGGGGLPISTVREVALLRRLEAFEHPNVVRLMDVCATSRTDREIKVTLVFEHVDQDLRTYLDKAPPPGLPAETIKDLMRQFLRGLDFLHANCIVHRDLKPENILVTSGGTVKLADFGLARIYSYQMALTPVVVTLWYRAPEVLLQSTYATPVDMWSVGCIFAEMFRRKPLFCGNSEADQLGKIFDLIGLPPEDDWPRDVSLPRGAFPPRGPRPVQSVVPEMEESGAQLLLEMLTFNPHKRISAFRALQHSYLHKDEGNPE
T1 sequence (P30281 whole entry partner): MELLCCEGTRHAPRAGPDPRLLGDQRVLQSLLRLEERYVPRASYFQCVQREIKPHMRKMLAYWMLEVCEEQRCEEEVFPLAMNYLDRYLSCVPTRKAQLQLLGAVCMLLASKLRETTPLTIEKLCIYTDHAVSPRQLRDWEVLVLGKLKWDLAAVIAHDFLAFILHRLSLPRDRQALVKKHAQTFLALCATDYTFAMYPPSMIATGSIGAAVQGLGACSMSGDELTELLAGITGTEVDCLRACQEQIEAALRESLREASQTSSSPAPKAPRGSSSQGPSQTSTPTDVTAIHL

A word on the Ki: it is the dissociation constant of the complex between target and ligand, obtained from inhibition or displacement. In the case of `CNC(=O)c1cnc(Nc2cc([C@H]3CC[C@@H](OC(=O)NC45CC(C4)C5)C3)[nH]n2)c(C)n1` [Example 9E, (1R,3S)-3-(3-((3-methyl-5-(methylcarbamoyl)pyrazin-2-yl)amino)-1H-pyrazol-5-yl)cyclopentyl bicyclo[1.1.1]pentan-1-ylcarbamate], the results for the Ki in assay [1], in assay [2] and in assay [3] were 0.19 µM, 0.069 µM and 0.0021 µM, respectively. Also, the IC50 in the assay on SKOV-3 (ATCC HTB-77) (setting [5]) turned out to be 1 µM; in the assay with HCT116 cells (setting [6]) it was 0.22 µM; in assay [4] (Table O, cellular assay), 0.2 µM. Further, the “FS CDK1/CDK2” value in assay [3] turned out to be 33. Also, the “FS CDK4/CDK2” value in assay [3] was 90. Besides, in assay [4] (Table O), the “FS SKOV-3/OVISE” value stood at 5. Moreover, the “FS p-H3/OVISE” value in assay [4] (Table O) was determined as 1.0.
Consider `CN1CCN(c2ccc(Nc3cc([C@H]4CC[C@@H](OC(=O)NC56CC(C5)C6)C4)[nH]n3)cn2)CC1` [Example 9H, (1R,3S)-3-(3-((6-(4-methylpiperazin-1-yl)pyridin-3-yl)amino)-1H-pyrazol-5-yl)cyclopentyl bicyclo[1.1.1]pentan-1-ylcarbamate], for which the Ki in assay [1] was found to be 0.0095 µM; in assay [2] it was 0.03 µM; in assay [3] it was 0.0047 µM. The IC50 in the assay with SKOV-3 (ATCC HTB-77) (setting [5]) amounted to 0.15 µM; with HCT116 cells (setting [6]) it was 0.039 µM; in assay [4] (Table O, cellular assay), 0.15 µM. Besides, in assay [3], the “FS CDK1/CDK2” value is 6.4. For the same molecule, the “FS CDK4/CDK2” value in assay [3] amounted to 2. In addition, the “FS SKOV-3/OVISE” value in assay [4] (Table O) came out at 1. For the same molecule, in assay [4] (Table O), the “FS p-H3/OVISE” value came out at 0.26.
On to `O=C(NC12CC(C1)C2)O[C@@H]1CC[C@H](c2cc(Nc3ccc(CO)nc3)n[nH]2)C1` [Example 9I, (1R,3S)-3-(3-((6-(hydroxymethyl)pyridin-3-yl)amino)-1H-pyrazol-5-yl)cyclopentyl bicyclo[1.1.1]pentan-1-ylcarbamate], for which the Ki was determined as 0.037 µM in assay [1], 0.0089 µM in assay [2] and 0.00038 µM in assay [3]. In addition, the IC50 is 0.36 µM in the assay with SKOV-3 (ATCC HTB-77) (setting [5]); 0.0069 µM in the assay with HCT116 cells (setting [6]); 0.03 µM in assay [4] (Table O, cellular assay). Moreover, the “FS CDK1/CDK2” value in assay [3] worked out at 23. The “FS CDK4/CDK2” value in assay [3] stood at 97. The “FS SKOV-3/OVISE” value in assay [4] (Table O) is listed as 12. Also, the “FS p-H3/OVISE” value in assay [4] (Table O) amounted to 0.23.
Consider `CN(C)Cc1ccc(Nc2cc([C@H]3CC[C@@H](OC(=O)NC45CC(C4)C5)C3)[nH]n2)cn1` [Example 9J, (1R,3S)-3-(3-((6-((dimethylamino)methyl)pyridin-3-yl)amino)-1H-pyrazol-5-yl)cyclopentyl bicyclo[1.1.1]pentan-1-ylcarbamate], for which the Ki in assay [1] came to 0.017 µM; in assay [2], 0.064 µM; in assay [3] it was 0.0019 µM. The IC50 turned out to be 0.28 µM with SKOV-3 (ATCC HTB-77) (setting [5]); 0.039 µM in the assay on HCT116 cells (setting [6]); 0.089 µM in assay [4] (Table O, cellular assay). Moreover, the “FS CDK1/CDK2” value in assay [3] worked out at 34. For the same molecule, the “FS CDK4/CDK2” value in assay [3] amounted to 8.9. Also, the “FS SKOV-3/OVISE” value in assay [4] (Table O) worked out at 3.1. Further, the “FS p-H3/OVISE” value in assay [4] (Table O) is 0.44.
On to `O=C(NC12CC(C1)C2)O[C@@H]1CC[C@H](c2cc(Nc3ccc(N4CCOCC4)nc3)n[nH]2)C1` [Example 9K, (1R,3S)-3-(3-((6-morpholinopyridin-3-yl)amino)-1H-pyrazol-5-yl)cyclopentyl bicyclo[1.1.1]pentan-1-ylcarbamate], for which the figures for the Ki in assay [1], in assay [2] and in assay [3] were 0.067 µM, 0.041 µM and 0.0056 µM, respectively. Also, the IC50 in the assay on SKOV-3 (ATCC HTB-77) (setting [5]) came out at 0.71 µM; with HCT116 cells (setting [6]) it was 0.049 µM; in assay [4] (Table O, cellular assay), 0.19 µM. Moreover, the “FS CDK1/CDK2” value in assay [3] is 7.3. Moreover, the “FS CDK4/CDK2” value in assay [3] is given as 12. The “FS SKOV-3/OVISE” value in assay [4] (Table O) came to 3.7. Moreover, the “FS p-H3/OVISE” value in assay [4] (Table O) came out at 0.26.
For `CC(C)(C)NC(=O)O[C@@H]1CC[C@H](c2cc(Nc3ccnc(CO)c3)n[nH]2)C1` [Example 10C, (1R,3S)-3-(3-((2-(hydroxymethyl)pyridin-4-yl)amino)-1H-pyrazol-5-yl)cyclopentyl tert-butylcarbamate], the Ki in assay [1] was 0.051 µM; in assay [2] it was 0.058 µM; in assay [3], 0.0018 µM. Moreover, the IC50 is 5.7 µM in the assay on SKOV-3 (ATCC HTB-77) (setting [5]); 0.18 µM in the assay with HCT116 cells (setting [6]); 0.13 µM in assay [4] (Table O, cellular assay). For the same molecule, the “FS CDK1/CDK2” value in assay [3] stood at 32. For the same molecule, the “FS CDK4/CDK2” value in assay [3] worked out at 28. In assay [4] (Table O), the “FS SKOV-3/OVISE” value amounted to 44. The “FS p-H3/OVISE” value in assay [4] (Table O) is on record as 1.4.
Regarding `Cc1nc(C#N)ccc1Nc1cc([C@H]2CC[C@@H](OC(=O)NC(C)(C)C)C2)[nH]n1` [Example 10D, (1R,3S)-3-(3-((6-cyano-2-methylpyridin-3-yl)amino)-1H-pyrazol-5-yl)cyclopentyl tert-butylcarbamate], the Ki in assay [1] came to 0.086 µM; in assay [2] it was 0.059 µM; in assay [3], 0.00044 µM. The IC50 in the assay with SKOV-3 (ATCC HTB-77) (setting [5]) came out at 2.8 µM; in the assay with HCT116 cells (setting [6]), 0.097 µM; in assay [4] (Table O, cellular assay) it was 0.046 µM. In assay [3], the “FS CDK1/CDK2” value is listed as 134. Moreover, the “FS CDK4/CDK2” value in assay [3] was 195. In addition, the “FS SKOV-3/OVISE” value in assay [4] (Table O) is 61. In assay [4] (Table O), the “FS p-H3/OVISE” value was found to be 2.1.
Consider `CC1(NC(=O)O[C@@H]2CC[C@H](c3cc(Nc4ccc(C#N)cn4)n[nH]3)C2)COC1` [Example 10E, (1R,3S)-3-(3-((5-cyanopyridin-2-yl)amino)-1H-pyrazol-5-yl)cyclopentyl (3-methyloxetan-3-yl)carbamate], for which the Ki stood at 0.064 µM in assay [1], 0.025 µM in assay [2] and 0.00078 µM in assay [3]. For the same molecule, the IC50 in the assay on SKOV-3 (ATCC HTB-77) (SK-OV-3, read-out: CDK4/6 SKOV-3 IC50) was 2.2 µM; in the assay on HCT116 cells (HCT-116, read-out: CDK1 p-H3 IC50), 0.12 µM; in assay [4] it was 0.11 µM. Further, in assay [3], the “FS CDK1/CDK2” value came out at 32. The “FS CDK4/CDK2” value in assay [3] was 82. In addition, in assay [4] (Table O), the “FS SKOV-3/OVISE” value was 20. Moreover, the “FS p-H3/OVISE” value in assay [4] (Table O) was 1.1.
In the case of `Cc1nnccc1Nc1cc([C@H]2CC[C@@H](OC(=O)NC(C)(C)C)C2)[nH]n1` [Example 11A, (1R,3S)-3-(3-((3-methylpyridazin-4-yl)amino)-1H-pyrazol-5-yl)cyclopentyl tert-butylcarbamate], the inhibition constant Ki in assay [1] amounted to 0.28 µM; in assay [2], 0.083 µM; in assay [3], 0.00063 µM. For the same molecule, the IC50 stood at 12 µM in the assay with SKOV-3 (ATCC HTB-77) (setting [5]); 0.23 µM in the assay on HCT116 cells (setting [6]); 0.12 µM in assay [4] (Table O, cellular assay). In addition, the “FS CDK1/CDK2” value in assay [3] came out at 132. Moreover, the “FS CDK4/CDK2” value in assay [3] worked out at 444. The “FS SKOV-3/OVISE” value in assay [4] (Table O) was found to be 100. The “FS p-H3/OVISE” value in assay [4] (Table O) is listed as 1.9.
